According to PubChem BioAssay (NCI):
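Briefly, cells in 96-well plates were exposed to five compound concentrations for 48 h, and endpoints were estimated by linear interpolation. At the TGI there is no net growth.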

Legend:
Test in all cases: growth of human tumour cells (NCI), 48 h
786-0 renal = test system: 786-0 renal
A498 renal = test system: A498 renal
A549 NSCLC = test system: A549 NSCLC
ACHN renal = test system: ACHN renal
BT-549 breast = test system: BT-549 breast
CAKI-1 renal = test system: CAKI-1 renal
CCRF-CEM leukemia = test system: CCRF-CEM leukemia
COLO 205 colon = test system: COLO 205 colon
DLD-1 colon = test system: DLD-1 colon
DMS 273 small cell lung = test system: DMS 273 small cell lung
DU-145 prostate = test system: DU-145 prostate
EKVX NSCLC = test system: EKVX NSCLC
HCC-2998 colon = test system: HCC-2998 colon
HCT-116 colon = test system: HCT-116 colon
HCT-15 colon = test system: HCT-15 colon
HL-60(TB) leukemia = test system: HL-60(TB) leukemia
HOP-18 NSCLC = test system: HOP-18 NSCLC
HOP-62 NSCLC = test system: HOP-62 NSCLC
HOP-92 NSCLC = test system: HOP-92 NSCLC
HS 578T breast = test system: HS 578T breast
HT29 colon = test system: HT29 colon
IGROV1 ovarian = test system: IGROV1 ovarian
K-562 leukemia = test system: K-562 leukemia
KM12 colon = test system: KM12 colon
KM20L2 colon = test system: KM20L2 colon
LOX IMVI melanoma = test system: LOX IMVI melanoma
M14 melanoma = test system: M14 melanoma
M19-MEL melanoma = test system: M19-MEL melanoma
MALME-3M melanoma = test system: MALME-3M melanoma
MCF7 breast = test system: MCF7 breast
MDA-MB-231 breast = test system: MDA-MB-231 breast
MDA-MB-435 = test system: MDA-MB-435
MDA-N = test system: MDA-N
MOLT-4 leukemia = test system: MOLT-4 leukemia
NCI-H226 lung = test system: NCI-H226 lung
NCI-H23 lung = test system: NCI-H23 lung
NCI-H460 lung = test system: NCI-H460 lung
NCI-H522 lung = test system: NCI-H522 lung
NCI/ADR-RES ovarian = test system: NCI/ADR-RES ovarian
OVCAR-3 ovarian = test system: OVCAR-3 ovarian
OVCAR-4 ovarian = test system: OVCAR-4 ovarian
OVCAR-5 ovarian = test system: OVCAR-5 ovarian
OVCAR-8 ovarian = test system: OVCAR-8 ovarian
PC-3 prostate = test system: PC-3 prostate
RPMI-8226 leukemia = test system: RPMI-8226 leukemia
RXF 393 renal = test system: RXF 393 renal
RXF-631 renal = test system: RXF-631 renal
SF-268 CNS = test system: SF-268 CNS
SF-295 CNS = test system: SF-295 CNS
SF-539 CNS = test system: SF-539 CNS
SK-MEL-2 melanoma = test system: SK-MEL-2 melanoma
SK-MEL-28 melanoma = test system: SK-MEL-28 melanoma
SK-MEL-5 melanoma = test system: SK-MEL-5 melanoma
SK-OV-3 ovarian = test system: SK-OV-3 ovarian
SN12C renal = test system: SN12C renal
SNB-19 CNS = test system: SNB-19 CNS
SNB-75 CNS = test system: SNB-75 CNS
SNB-78 CNS = test system: SNB-78 CNS
SR leukemia = test system: SR leukemia
SW-620 colon = test system: SW-620 colon
T-47D breast = test system: T-47D breast
TK-10 renal = test system: TK-10 renal
U251 CNS = test system: U251 CNS
UACC-257 melanoma = test system: UACC-257 melanoma
UACC-62 melanoma = test system: UACC-62 melanoma
UO-31 renal = test system: UO-31 renal
DMS 114 small cell lung = test system: DMS 114 small cell lung
LXFL 529 NSCLC = test system: LXFL 529 NSCLC
XF 498 CNS = test system: XF 498 CNS

With `Cc1nc(-n2nc(-c3ccccc3)cc2-c2ccccc2)sc1C(=O)/C=C/c1ccc([N+](=O)[O-])cc1` the TGI (786-0 renal) was 29.8 µM, the TGI (A498 renal) was > 65.8 µM and the TGI (A549 NSCLC) was > 100 µM. For the same compound, the TGI (ACHN renal) was > 52 µM, the TGI (BT-549 breast) was 39.5 µM and the TGI (CAKI-1 renal) was > 55 µM. The TGI (CCRF-CEM leukemia) was 48.1 µM, the TGI (COLO 205 colon) was > 80.6 µM and the TGI (DLD-1 colon) was 36.2 µM. For the same compound, the TGI (DMS 273 small cell lung) was > 100 µM, the TGI (DU-145 prostate) was > 100 µM and the TGI (EKVX NSCLC) was > 100 µM. For the same compound, the TGI (HCC-2998 colon) was 38.1 µM, the TGI (HCT-116 colon) was 28.3 µM and the TGI (HCT-15 colon) was > 61.9 µM. For the same compound, the TGI (HL-60(TB) leukemia) was 55.9 µM, the TGI (HOP-18 NSCLC) was > 100 µM and the TGI (HOP-62 NSCLC) was > 94.4 µM. For the same compound, the TGI (HOP-92 NSCLC) was > 85.7 µM, the TGI (HS 578T breast) was > 100 µM and the TGI (HT29 colon) was > 100 µM. For the same compound, the TGI (IGROV1 ovarian) was > 100 µM, the TGI (K-562 leukemia) was > 70.6 µM and the TGI (KM12 colon) was 38.1 µM. The TGI (KM20L2 colon) was > 100 µM, the TGI (LOX IMVI melanoma) was 52.5 µM and the TGI (M14 melanoma) was 94.7 µM. The TGI (M19-MEL melanoma) was 98.9 µM, the TGI (MALME-3M melanoma) was > 100 µM and the TGI (MCF7 breast) was > 100 µM. The TGI (MDA-MB-231 breast) was > 100 µM, the TGI (MDA-MB-435) was 43.5 µM and the TGI (MDA-N) was 59.8 µM. The TGI (MOLT-4 leukemia) was 51.5 µM, the TGI (NCI-H226 lung) was > 100 µM and the TGI (NCI-H23 lung) was > 54.9 µM. The TGI (NCI-H460 lung) was > 69.3 µM, the TGI (NCI-H522 lung) was 66.1 µM and the TGI (NCI/ADR-RES ovarian) was > 100 µM. The TGI (OVCAR-3 ovarian) was 45.3 µM, the TGI (OVCAR-4 ovarian) was > 100 µM and the TGI (OVCAR-5 ovarian) was > 100 µM. For the same compound, the TGI (OVCAR-8 ovarian) was > 31.6 µM, the TGI (PC-3 prostate) was > 100 µM and the TGI (RPMI-8226 leukemia) was 23.5 µM. For the same compound, the TGI (RXF 393 renal) was 49.3 µM, the TGI (RXF-631 renal) was > 100 µM and the TGI (SF-268 CNS) was > 87.6 µM. For the same compound, the TGI (SF-295 CNS) was > 100 µM, the TGI (SF-539 CNS) was 18.8 µM and the TGI (SK-MEL-2 melanoma) was > 100 µM. The TGI (SK-MEL-28 melanoma) was > 100 µM, the TGI (SK-MEL-5 melanoma) was > 56.4 µM and the TGI (SK-OV-3 ovarian) was > 100 µM. For the same compound, the TGI (SN12C renal) was > 76.4 µM, the TGI (SNB-19 CNS) was > 100 µM and the TGI (SNB-75 CNS) was > 67 µM. For the same compound, the TGI (SNB-78 CNS) was > 100 µM, the TGI (SR leukemia) was 24.2 µM and the TGI (SW-620 colon) was > 71.2 µM. For the same compound, the TGI (T-47D breast) was > 100 µM, the TGI (TK-10 renal) was > 66.8 µM and the TGI (U251 CNS) was > 47.6 µM. The TGI (UACC-257 melanoma) was > 71.7 µM, the TGI (UACC-62 melanoma) was > 53.9 µM and the TGI (UO-31 renal) was > 54 µM.
In the case of `O=C1NC2(CCCC2)C2CCCCC12O` (configuration not stated), the TGI (786-0 renal) is reported as > 100 µM, the TGI (A498 renal) is reported as > 100 µM and the TGI (A549 NSCLC) is reported as > 100 µM. For the same compound, the TGI (ACHN renal) was > 100 µM, the TGI (CAKI-1 renal) was > 100 µM and the TGI (CCRF-CEM leukemia) was > 100 µM. The TGI (COLO 205 colon) was > 100 µM, the TGI (DLD-1 colon) was > 100 µM and the TGI (DMS 114 small cell lung) was > 100 µM. The TGI (DMS 273 small cell lung) was > 100 µM, the TGI (EKVX NSCLC) was > 100 µM and the TGI (HCT-116 colon) was > 100 µM. For the same compound, the TGI (HCT-15 colon) was > 100 µM, the TGI (HL-60(TB) leukemia) was > 100 µM and the TGI (HOP-18 NSCLC) was > 100 µM. For the same compound, the TGI (HOP-62 NSCLC) was > 100 µM, the TGI (HOP-92 NSCLC) was > 100 µM and the TGI (HT29 colon) was > 100 µM. For the same compound, the TGI (IGROV1 ovarian) was > 100 µM, the TGI (K-562 leukemia) was > 100 µM and the TGI (KM12 colon) was > 100 µM. The TGI (LOX IMVI melanoma) was > 100 µM, the TGI (LXFL 529 NSCLC) was > 100 µM and the TGI (M14 melanoma) was > 100 µM. The TGI (M19-MEL melanoma) was > 100 µM, the TGI (MALME-3M melanoma) was > 100 µM and the TGI (MOLT-4 leukemia) was > 100 µM. The TGI (NCI-H23 lung) was > 100 µM, the TGI (NCI-H460 lung) was > 100 µM and the TGI (NCI-H522 lung) was > 100 µM. For the same compound, the TGI (OVCAR-3 ovarian) was > 100 µM, the TGI (OVCAR-4 ovarian) was > 100 µM and the TGI (OVCAR-5 ovarian) was > 100 µM. The TGI (OVCAR-8 ovarian) was > 100 µM, the TGI (RPMI-8226 leukemia) was > 100 µM and the TGI (RXF 393 renal) was > 100 µM. The TGI (RXF-631 renal) was > 100 µM, the TGI (SF-268 CNS) was > 100 µM and the TGI (SF-295 CNS) was > 100 µM. For the same compound, the TGI (SF-539 CNS) was > 100 µM, the TGI (SK-MEL-2 melanoma) was > 100 µM and the TGI (SK-MEL-28 melanoma) was > 100 µM. For the same compound, the TGI (SK-MEL-5 melanoma) was > 100 µM, the TGI (SK-OV-3 ovarian) was > 100 µM and the TGI (SN12C renal) was > 100 µM. The TGI (SNB-19 CNS) was > 100 µM, the TGI (SNB-75 CNS) was > 100 µM and the TGI (SNB-78 CNS) was > 100 µM. For the same compound, the TGI (SR leukemia) was > 100 µM, the TGI (SW-620 colon) was > 100 µM and the TGI (TK-10 renal) was > 100 µM. The TGI (U251 CNS) was > 100 µM, the TGI (UACC-257 melanoma) was > 100 µM and the TGI (UACC-62 melanoma) was > 100 µM. For the same compound, the TGI (UO-31 renal) was > 100 µM and the TGI (XF 498 CNS) was > 100 µM.
